The target in the assay is T1, ERα protein (HiBiT-tagged) in ESR1_HiBiT KI MCF7 cells (Homo sapiens, UniProt P03372).
T1 sequence (P03372 1-595): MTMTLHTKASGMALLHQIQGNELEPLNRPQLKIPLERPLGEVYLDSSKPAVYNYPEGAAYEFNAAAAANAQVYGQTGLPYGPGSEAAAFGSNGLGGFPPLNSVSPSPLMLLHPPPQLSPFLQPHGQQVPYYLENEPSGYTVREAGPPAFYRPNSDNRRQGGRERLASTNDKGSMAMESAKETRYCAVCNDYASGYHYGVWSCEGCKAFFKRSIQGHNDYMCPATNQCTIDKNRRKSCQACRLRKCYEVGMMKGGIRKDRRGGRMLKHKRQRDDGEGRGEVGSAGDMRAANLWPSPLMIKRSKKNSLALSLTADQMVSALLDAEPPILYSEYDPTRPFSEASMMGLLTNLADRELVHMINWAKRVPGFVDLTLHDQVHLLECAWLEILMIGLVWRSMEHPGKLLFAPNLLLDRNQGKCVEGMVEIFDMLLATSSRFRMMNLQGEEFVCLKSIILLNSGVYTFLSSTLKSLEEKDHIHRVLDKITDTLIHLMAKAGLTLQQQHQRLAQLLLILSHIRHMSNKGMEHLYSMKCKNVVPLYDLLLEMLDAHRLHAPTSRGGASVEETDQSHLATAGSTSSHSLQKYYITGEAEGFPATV
Description: Nano Glo HiBiT Lytic Degradation Assay. Format: cell-based. The following applies: 6 hours with compound, 14-point dose response 1:3, bell-shape curve fit, half-maximal effect of first Hill model, read-out: MCF7 ESR1 HiBiT - (DC50). In outline:
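Lytic Nano-Glo HiBiT luminescence quantified ERα remaining after a 6 h, 37° C compound exposure of MCF7 cells carrying endogenous HiBiT-tagged ESR1. Dosing used 14 threefold dilutions from a 10 mM DMSO stock (0.1% DMSO final), run in duplicate. Signals were corrected for cell-free background and expressed relative to DMSO, and DC50 came from a bell-shaped curve fit (first Hill model half-maximum).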
For `Cc1cc([C@@H]2OCc3cc(O)ccc3[C@@H]2c2ccc(N3CCC(CN4CCN(c5ccc6c(c5)CN([C@H]5CCC(=O)NC5=O)C6=O)CC4)CC3)cc2)ccc1F` [Compound I-376, (S)-3-(5-(4-((1-(4-((3R,4S)-3-(4-fluoro-3-methylphenyl)-7-hydroxyisochroman-4-yl)phenyl)piperidin-4-yl)methyl)piperazin-1-yl)-1-oxoisoindolin-2-yl)piperidine-2,6-dione], the 50% degradation concentration (DC50) is at least 10000 nM.

As for `O=C1CC[C@H](N2Cc3cc(N4CCN(CC5CCN(c6ccc([C@H]7c8ccc(O)cc8CC[C@H]7C7CCCCCC7)cc6)CC5)CC4)ccc3C2=O)C(=O)N1` [Compound I-134, (3S)-3-[5-[4-[[1-[4-[(1S,2S)-2-cycloheptyl-6-hydroxy-tetralin-1-yl]phenyl]-4-piperidyl]methyl]piperazin-1-yl]-1-oxo-isoindolin-2-yl]piperidine-2,6-dione], the DC50 was at least 10000 nM.

As to `C[C@H]1O[C@H](c2ccccc2)[C@H](c2ccc(N3CCC(CN4CCN(c5ccc6c(c5)CN([C@H]5CCC(=O)NC5=O)C6=O)CC4)CC3)cc2)c2ccc(O)cc21` (single isomer, unassigned) [Compound I-367], the DC50 stood at 0.24 nM.

`O=C1CC[C@@H](N2Cc3cc(N4CCN(CC5CCN(c6ccc([C@@H]7c8ccc(O)cc8CC[C@@H]7c7ccc(F)cc7)cc6)CC5)CC4)ccc3C2=O)C(=O)N1` [II-110]: the DC50 was 0.88 nM.

Turning to `O=C1CC[C@H](N2Cc3cc(N4CCN(CC5CCN(c6ccc([C@H]7c8ccc(O)cc8C(F)(F)C[C@H]7C7CCCC7)cc6)CC5)CC4)ccc3C2=O)C(=O)N1` [Compound I-234, (S)-3-(5-(4-((1-(4-((1S,2S)-2-cyclopentyl-4,4-difluoro-6-hydroxy-1,2,3,4-tetrahydronaphthalen-1-yl)phenyl)piperidin-4-yl)methyl)piperazin-1-yl)-1-oxoisoindolin-2-yl)piperidine-2,6-dione], the DC50 is 959 nM.

As to `O=C1CC[C@H](N2Cc3cc(N4CCN(CC5CCN(c6ccc([C@H]7c8ccc(O)cc8CC[C@H]7c7cccc(F)c7)cc6)CC5)CC4)ccc3C2=O)C(=O)N1` (single isomer, unassigned) [II-27], the DC50 amounted to 0.82 nM.

Take `O=C1CC[C@H](N2Cc3cc(N4CCN(CC5CCN(c6ccc([C@@H]7c8ccc(O)cc8CC[C@@]78CCCc7ccccc78)cc6)CC5)CC4)ccc3C2=O)C(=O)N1` [Compound I-264, (S)-3-(5-(4-((1-(4-((1S,1′S)-6′-hydroxy-3,3′,4,4′-tetrahydro-1′H,2H-1,2′-spirobi[naphthalen]′-yl)phenyl)piperidin-4-yl)methyl)piperazin-1-yl)-1-oxoisoindolin-2-yl)piperidine-2,6-dione]: the DC50 amounted to 0.43 nM.

Consider `C[C@@H]1CN(CC2CCN(c3ccc([C@H]4c5ccc(O)cc5CC[C@H]4c4ccccc4)cc3)CC2)CCN1c1ccc2c(c1)CN([C@H]1CCC(=O)NC1=O)C2=O` (single isomer, unassigned) [II-4], for which the DC50 came out at 1140 nM.

On to `O=C1CC[C@H](N2Cc3cc(N4CCN(CC5CCN(c6ccc([C@H]7c8ccc(O)cc8C(F)(F)C[C@H]7CC7CCCC7)cc6)CC5)CC4)ccc3C2=O)C(=O)N1` [Compound I-229, (3S)-3-[5-[4-[[1-[4-[(1S,2R)-2-(cyclopentylmethyl)-4,4-difluoro-6-hydroxy-tetralin-1-yl]phenyl]-4-piperidyl]methyl]piperazin-1-yl]-1-oxo-isoindolin-2-yl]piperidine-2,6-dione], for which the DC50 was at least 10000 nM.

As for `O=C1CCC(N2Cc3cc(C4=CCN(CC5CCN(c6ccc([C@@H]7c8ccc(O)cc8CC[C@@H]7c7ccccc7)cc6)CC5)CC4)ccc3C2=O)C(=O)N1` (stereo partly shown) [II-104], the DC50 came out at 22 nM.

As for `O=C1CC[C@H](N2Cc3cc(N4CCN(C[C@H]5CCCN(c6ccc([C@@H]7c8ccc(O)cc8CC[C@@H]7c7ccccc7)cc6)C5)CC4)ccc3C2=O)C(=O)N1` (single isomer, unassigned) [II-22], the DC50 was 5 nM.

For the compound `C[C@]1(C2CCCCC2)CCc2cc(O)ccc2[C@@H]1c1ccc(N2CCC(CN3CCN(c4ccc5c(c4)CN([C@H]4CCC(=O)NC4=O)C5=O)CC3)CC2)cc1` [Compound I-239, (S)-3-(5-(4-((1-(4-((1S,2R)-2-cyclohexyl-6-hydroxy-2-methyl-1,2,3,4-tetrahydronaphthalen-1-yl)phenyl)piperidin-4-yl)methyl)piperazin-1-yl)-1-oxoisoindolin-2-yl)piperidine-2,6-dione], the DC50 came to 1990 nM.

With `O=C1CC[C@H](N2Cc3cc(N4CCN(CC5CCN(c6ccc([C@H]7c8ccc(O)cc8CO[C@H]7c7cccc(OC(F)(F)F)c7)cc6)CC5)CC4)ccc3C2=O)C(=O)N1` [Compound I-361, (S)-3-(5-(4-((1-(4-((3R,4S)-7-hydroxy-3-(3-(trifluoromethoxy)phenyl)isochroman-4-yl)phenyl)piperidin-4-yl)methyl)piperazin-1-yl)-1-oxoisoindolin-2-yl)piperidine-2,6-dione], the 50% degradation concentration (DC50) was at least 10000 nM.

As to `O=C1CC[C@H](N2Cc3cc(N4CCN(CC5CCN(c6ccc([C@H]7c8ccc(O)cc8CC[C@H]7C7CCCCC7)nc6)CC5)CC4)ccc3C2=O)C(=O)N1` [Compound I-150, (S)-3-(5-(4-((1-(6-((1R,2S)-2-cyclohexyl-6-hydroxy-1,2,3,4-tetrahydronaphthalen-1-yl)pyridin-3-yl)piperidin-4-yl)methyl)piperazin-1-yl)-1-oxoisoindolin-2-yl)piperidine-2,6-dione], the half-maximal degradation concentration (DC50) is at least 10000 nM.

As to `CC(C)[C@H]1CCc2cc(O)ccc2[C@H]1c1ccc(N2CCC(CN3CCN(c4ccc5c(c4)CN(C4CCC(=O)NC4=O)C5=O)CC3)CC2)cc1` (stereo in doubt) [Compound I-128, (R)-3-(5-(4-((1-(4-((1R,2R)-6-hydroxy-2-isopropyl-1,2,3,4-tetrahydronaphthalen-1-yl)phenyl)piperidin-4-yl)methyl)piperazin-1-yl)-1-oxoisoindolin-2-yl)piperidine-2,6-dione], the DC50 came out at 0.1 nM.

For `Cn1c(=O)n(C2CCC(=O)NC2=O)c2ccc(N3CCN(CC4CCN(c5ccc([C@@H]6c7ccc(O)cc7CC[C@@H]6c6ccccc6)cc5)CC4)CC3)cc21` (stereo partly drawn) [Compound I-190, 3-(5-(4-((1-(4-((1R,2S)-6-hydroxy-2-phenyl-1,2,3,4-tetrahydronaphthalen-1-yl)phenyl)piperidin-4-yl)methyl)piperazin-1-yl)-3-methyl-2-oxo-2,3-dihydro-1H-benzo[d]imidazol-1-yl)piperidine-2,6-dione], the DC50 stood at 0.4 nM.

For the compound `O=C1CC[C@H](N2Cc3cc(N4CCN(CC5CCN(c6ccc([C@H]7c8ccc(O)cc8CC[C@H]7C7CCC(F)(F)CC7)cc6)CC5)CC4)ccc3C2=O)C(=O)N1` (single isomer, unassigned) [Compound I-55], the DC50 came out at 0.41 nM.

Consider `O=C1CC[C@H](N2Cc3cc(N4CCC(CN5CCC(n6cc([C@@H]7c8ccc(O)cc8CC[C@@H]7c7ccccc7)cn6)CC5)CC4)ccc3C2=O)C(=O)N1` (single isomer, unassigned) [Compound I-409], for which the DC50 is at least 10000 nM.

Turning to `O=C1CC[C@H](N2Cc3cc(N4CCN(CC5CCN(c6ccc([C@@H]7c8ccc(O)cc8CC[C@@H]7C7CCCCC7)c(F)c6)CC5)CC4)ccc3C2=O)C(=O)N1` [Compound I-137, (S)-3-(5-(4-((1-(4-((1S,2R)-2-cyclohexyl-6-hydroxy-1,2,3,4-tetrahydronaphthalen-1-yl)-3-fluorophenyl)piperidin-4-yl)methyl)piperazin-1-yl)-1-oxoisoindolin-2-yl)piperidine-2,6-dione], the DC50 was at least 10000 nM.

Broadly, the DC50 is the concentration giving 50% degradation.

The values are drawn from US20250388565A1, “ESTROGEN RECEPTOR ALPHA DEGRADERS AND METHODS OF USE THEREOF” (Relay Therapeutics, Inc., priority 2022, published 2025).
